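Compound exposure: 48 hours, 5 concentrations, 96-well plates. At the GI50, growth is halved.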 Activity calls are given as the source filed them. No stated cut-off is given here; in the data, active = GI50 up to about 1.1 µM and inactive = higher.
Experiments:
Test in all cases: NCI tumour cell line growth inhibition, 48 h
[1] = system: A498
[2] = system: EKVX
[3] = system: HOP-92
[4] = system: HT-29
[5] = system: Hs-578T
[6] = system: K562
[7] = system: KM12
[8] = system: MCF7
[9] = system: MDA-MB-231
[10] = system: MDA-MB-435
[11] = system: MOLT-4
[12] = system: Malme-3M
[13] = system: NCI-H226
[14] = system: SNB-75
[15] = system: SW-620
[16] = system: U-251
[17] = system: UACC-257
[18] = system: UACC-62
[19] = system: UO-31
[20] = system: OVCAR-5

Measured: GI50

Cc1nc2ccc(Cl)cc2c2c1CCO2
inactive: [1] 71 µM | [2] 17.1 µM | [3] 80 µM | [4] 95.1 µM | [5] > 100 µM | [6] > 100 µM | [7] > 100 µM | [8] > 100 µM | [9] 43.5 µM | [10] > 100 µM | [11] 45.2 µM | [12] > 100 µM | [13] 94.4 µM | [14] 69.3 µM | [15] > 100 µM | [16] > 100 µM | [17] > 100 µM | [18] 71.9 µM | [19] 37.1 µM

Cc1cccc2c1c(=O)c1c(O)cc3c(c1n2C)C=CC(C)(C)O3
inactive: [1] > 100 µM | [2] 33.9 µM | [3] > 100 µM | [4] 9.1 µM | [5] > 100 µM | [6] 18.1 µM | [7] 70.3 µM | [8] > 100 µM | [9] > 100 µM | [10] > 100 µM | [11] > 100 µM | [12] > 100 µM | [13] 96.4 µM | [20] > 100 µM | [14] > 100 µM | [15] > 100 µM | [16] > 100 µM | [17] > 100 µM | [18] > 100 µM

CCCCCCCC1c2cc3nc(cc4[nH]c(cc5nc(cc([nH]2)[C@@]1(C)CC(=O)N(C)C)C(C)=C5CCC(=O)O)c(CCC(=O)O)c4C)C=C3C (stereo partly drawn)
inactive: [1] 33.3 µM | [2] 55.8 µM | [3] 21.2 µM | [4] 18.6 µM | [5] 18.7 µM | [6] 21.8 µM | [7] 24.9 µM | [8] 32.1 µM | [9] 17 µM | [10] 30.2 µM | [12] 19.9 µM | [20] 25.5 µM | [14] 18.7 µM | [15] 42.8 µM | [16] 18.9 µM | [17] 17.3 µM | [18] 18.5 µM | [19] 18.2 µM

Clc1ccc(COC(Cn2ccnc2)c2ccc(Cl)cc2Cl)cc1 (stereo not drawn) [ECONAZOLE]
inactive: [1] 14.2 µM | [2] 11.8 µM | [3] 10.6 µM | [4] 8.69 µM | [5] 17 µM | [6] 4.76 µM | [7] 14 µM | [8] 12.4 µM | [9] 13.3 µM | [10] 11.8 µM | [11] 2.99 µM | [12] 12.3 µM | [20] 11.5 µM | [14] 13.7 µM | [15] 12.1 µM | [16] 13.2 µM | [17] 13.1 µM | [18] 12.1 µM | [19] 4.13 µM

O=C(Cl)C1=C(c2ccccc2)C1c1ccccc1 (stereo not drawn)
inactive: [1] > 100 µM | [2] > 100 µM | [3] > 100 µM | [4] > 100 µM | [5] > 100 µM | [6] > 100 µM | [7] > 100 µM | [8] > 100 µM | [9] > 100 µM | [10] > 100 µM | [11] > 100 µM | [12] > 100 µM | [13] > 100 µM | [20] > 100 µM | [14] > 100 µM | [15] > 100 µM | [16] > 100 µM | [17] > 100 µM | [18] > 100 µM

CCCCN1CCC(O)(c2cc(C(=O)O)[nH]c2-c2cc(C)no2)C1=O (stereo not drawn)
inactive: [1] > 100 µM | [2] > 100 µM | [3] > 100 µM | [4] > 100 µM | [5] > 100 µM | [6] > 100 µM | [7] > 100 µM | [8] > 100 µM | [9] > 100 µM | [10] > 100 µM | [11] > 100 µM | [12] > 100 µM | [20] > 100 µM | [14] 49.9 µM | [15] > 100 µM | [16] > 100 µM | [17] > 100 µM | [18] > 100 µM | [19] > 100 µM
